Results reported in patent publication US20130306000A1, “Aflaxtoxin Resistant Poultry” (priority 2012, published 2013).

Experiments:
[1] = system: Turkey liver cytosolic GSTs; assay: Turkey liver cytosolic GST activity toward substrates; assay type: biochemical; conditions: turkey liver cytosol
[2] = system: BHA-induced mouse liver; assay type: in vitro ADME

| Molecule | activity of turkey liver cytosolic GSTs toward the substrate [1] | AFB1 detoxification, specific enzyme activity [2] [nmol/min per mg protein] |
| --- | --- | --- |
| O=[N+]([O-])c1ccc(Cl)c([N+](=O)[O-])c1 [CDNB, chlorodinitrobenezene] | active | – |
| O=[N+]([O-])c1ccc(Cl)c(Cl)c1 [DCNB, dichlornitrobenzene] | active | – |
| aflatoxin B1 [AFB1] | – | 0.426 ± 0.04 |
| exo-AFB1-8,9-epoxide [AFBO] | not toward | – |
